Bridge positions count the residues as written; N and C are the ends. Square brackets hold non-standard residues; d marks the D form. S8 = C=CCCCCCC[C@](C)(N)C(=O)O; R5 = C=CCCC[C@@](C)(N)C(=O)O; S5 = C=CCCC[C@](C)(N)C(=O)O; Aib = CC(C)(N)C(=O)O
How the values were obtained:
[1] = Stability of peptides against guanidine hydrochloride (helicity); type: physicochemical
trypsin = molecular target: T1, trypsin (Bos taurus, UniProt P00760); type: in vitro ADME; details: for slope of ln[S] versus time (first order kinetics of trypsin digestion): 0.1 M NH4HCO3 buffer pH 8.0, room temperature
T1 construct: purchased Pierce 20230
T1 sequence (P00760 24-246): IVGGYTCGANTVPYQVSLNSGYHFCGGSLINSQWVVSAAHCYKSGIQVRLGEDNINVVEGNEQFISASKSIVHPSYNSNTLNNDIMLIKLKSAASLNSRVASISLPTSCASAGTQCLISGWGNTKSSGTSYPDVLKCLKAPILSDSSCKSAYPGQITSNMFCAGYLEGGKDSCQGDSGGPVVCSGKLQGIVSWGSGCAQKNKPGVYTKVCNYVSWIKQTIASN
Description: 0.4 mL of trypsin immobilized on agarose (Pierce, catalog #20230) was washed with 0.8 mL of a digestion buffer (0.1 M NH4HCO3 buffer, pH 8.0). The gel was separated from the buffer after each wash by centrifugation. The washed enzyme was suspended in 1.6 mL of the digestion buffer. 350 μL of a peptide solution (24 μM) in the digestion buffer was mixed with 150 μL of the enzyme suspension and the resulting mixture was incubated with rapid shaking at room temperature for 10, 30, 90, 135, 180 minutes. The incubation was quenched by filtering off the enzyme, and the residual substrate in the filtrate was quantified by HPLC-based peak detection at 280 nm.

chymotrypsin = assay: Stability of peptides against chymotrypsin; type: in vitro ADME; details: compared with stapled peptide 5
[2] = Circular dichroism, temperature-dependent spectra and thermal unfolding curves; type: physicochemical
Description: Peptides were dissolved in water to described concentrations, and the concentrations were determined by absorbance spectroscopy (extinction coefficient for tryptophan, ε280=5690 cm^-1). Circular dichroism spectra were collected on a Jasco J-710 spectropolarimeter equipped with a temperature controller using the following standard measurement parameters: 0.5 nm step resolution, 20 nm/sec speed, 10 accumulations, 1 sec response, 1 nm bandwidth, 0.1 cm path length. All spectra were converted to a uniform scale of molar ellipticity after background subtraction. Temperature-dependent CD spectra of each peptide (94-100 μM) were recorded at varying temperatures (4° C. and every 10° C. from 10° C. to 90° C.) from 260 to 185 nm. CD measurements with varying concentrations (18, 48, 70, and 118 μM) of peptide 4 were performed at 20° C. To generate thermal unfolding curves, the ellipticity at 222 nm for each peptide (94-100 μM) was measured every 1° C. from 4 to 95° C. with temperature slope of 3° C./min. To obtain Tm, we analyzed the thermal unfolding curves using a two-state model as previously described with 95% confidence interval (see […]. Biophysic. J. 2003, 85, 1457-1465). […] However, peptide 4 retained more than 50% of their alpha-helicity even at 95° C.

| Compound | stability against the denaturing agent guanidine hydrochloride (in words) [1] | slope of ln[S] versus time (first order kinetics of trypsin digestion) (trypsin) | half-life (trypsin; pH 8) | stability against chymotrypsin (in words) (chymotrypsin) | helical character by CD (in words) [2] | cooperative melting transition point (in words) ([2]; 4 to 95° C.) | alpha-helicity retained ([2]; at 95° C.) | thermal stability of the helix by CD (in words) ([2]; increasing temperature) | cooperative melting transition (Tm) ([2]; CD ellipticity at 222 nm, 4 to 95° C., peptide 94-100 μM in water, two-state model) |
| --- | --- | --- | --- | --- | --- | --- | --- | --- | --- |
| CC(=O)N[C@@H](CCC(=O)O)C(=O)N[C@@H](Cc1c[nH]c2ccccc12)C(=O)N[C@@H](C)C(=O)N[C@@]1(C)CCC/C=C\CCC[C@]2(CCC/C=C/CCCCCC[C@@](C)(C(N)=O)NC(=O)[C@H](Cc3c[nH]cn3)NC(=O)[C@H](C)NC(=O)[C@H](C)NC(=O)[C@H](CC(C)C)NC(=O)[C@H](Cc3ccccc3)NC(=O)[C@H](CCCCN)NC2=O)NC(=O)[C@H](C)NC(=O)[C@H](C)NC(=O)[C@H]([C@@H](C)O)NC1=O [Peptide 4] | remains fully helical even at extremely high concentrations of guanidine salt | 4.04±0.16×10^−5 min^−1 | 172 min | higher level of stability | displayed the characteristic CD signature of alpha-helices | did not have a cooperative melting transition point | more than 50% | less affected by increasing temperature than single-stapled peptides 5 and 6 |  |
| Peptide 5: single-stapled peptide, RCM product of Table 5 entry IX (SEQ ID 9) (Ac-EWA[Aib]TAA[R5]KFLAAH[S8]-NH2; staple 8-15 (inferred)) |  | 7.11±0.66×10^−5 min^−1 |  |  |  |  |  |  | 57 °C |
| Peptide 8: i+4+4 stitched peptide, double RCM product of Table 5 entry XI (SEQ ID 11) (Ac-EWA[S5]TAA[2‑amino‑2‑(pent-4-enyl)hept‑6‑enoic acid]KFL[R5]AHA-NH2; staple 8-12, 4-8) |  |  |  |  | helical character greater than the stapled peptide 5 and less than that of the i+4+7 stitched peptide 4 | did not have a cooperative melting transition point |  |  |  |

Source: patent US10301351B2, “Stitched polypeptides” (President and Fellows of Harvard College, priority 2007, dated 2019)
